“Also recorded” adds a separate entry of the source.
Legend:
Male CD-1 mice = test: Psychostimulant (amphetamine)-induced hyperactivity in mice; conditions: AMPH 2 mg/kg i.p. + clozapine 3 mg/kg i.p. 30 min before; over 60 min; mean ± sem; p<0.01 vs amphetamine alone
[1] = test system: "fast-firing" interneurons in the somatosensory cortex; test: Recordings from fast-firing interneurons, spike probability on trains of depolarising pulses; type: cell-based, mouse; conditions: 1 microM, n=6; trains at 100, 200, 300 Hz; effect at 300 Hz, p<0.05
From the text: Kv3.1 and Kv3.2 channels must activate and deactivate very rapidly in order to allow neurons to fire actions potentials at high frequency (Rudy and McBain, 2001, Trends in Neurosciences 24, 517-526). Slowing of activation is likely to delay the onset of action potential repolarisation; slowing of deactivation could lead to hyperpolarising currents that reduce the excitability of the neuron and delay the time before the neuron can fire a further action potential. Together these slowing effects on channel activation and deactivation are likely to lead to a reduction rather than a facilitation of the neurons ability to fire at high frequencies. Thus compounds that have this slowing effect on the Kv3.1 and/or Kv3.2 channels may slow neuronal firing.
The neurons are induced to fire at high frequencies by trains of high frequency depolarising current pulses at 100, 200, and 300 Hz. The ability of the neuron to fire an action potential on each pulse is determined. […] In the absence of drug (closed circles, n=9), the neurons maintained a spike probability of 1 up to 300 Hz.

[2] = molecular target: T1, human Kv3.2 channels (hKv3.2) (Homo sapiens, UniProt Q96PR1); test: IonWorks Quattro electrophysiology, hKv3.2 currents, activation time constant (Tauact); type: cell-based; conditions: hKv3.2, -15 mV pulse; compound 0.2 μM (concentration giving ~0.3 nA current)
T1 construct: expressed in transfected cells
T1 sequence (Q96PR1 1-638): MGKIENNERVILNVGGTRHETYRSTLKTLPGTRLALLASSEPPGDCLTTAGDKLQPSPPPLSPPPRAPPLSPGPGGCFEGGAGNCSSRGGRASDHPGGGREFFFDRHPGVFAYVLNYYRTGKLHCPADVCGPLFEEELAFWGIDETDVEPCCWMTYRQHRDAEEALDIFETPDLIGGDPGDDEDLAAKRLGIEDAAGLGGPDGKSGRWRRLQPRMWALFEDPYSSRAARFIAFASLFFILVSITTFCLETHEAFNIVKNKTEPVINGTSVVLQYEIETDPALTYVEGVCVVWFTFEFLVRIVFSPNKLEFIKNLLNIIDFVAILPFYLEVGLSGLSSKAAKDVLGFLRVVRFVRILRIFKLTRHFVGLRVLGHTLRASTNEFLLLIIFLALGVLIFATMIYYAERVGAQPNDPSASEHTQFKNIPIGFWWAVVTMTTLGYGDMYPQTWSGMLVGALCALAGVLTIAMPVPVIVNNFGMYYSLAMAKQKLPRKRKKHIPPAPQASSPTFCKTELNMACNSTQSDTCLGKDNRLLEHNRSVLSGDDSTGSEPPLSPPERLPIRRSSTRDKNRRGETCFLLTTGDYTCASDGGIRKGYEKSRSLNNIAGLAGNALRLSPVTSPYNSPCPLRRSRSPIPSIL
Procedure: The ability of the compounds of the disclosure to modulate the voltage-gated potassium channel subtypes Kv3.2/3.1 may be determined using the following assay.
To assess compound effects on human Kv3.2 channels (hKv3.2), a stable cell line expressing hKv3.2 was created by transfecting Chinese Hamster Ovary (CHO)-K1 cells with a pCIH5-hKv3.2 vector. Cells were cultured in DMEM/F12 medium supplemented by 10% Foetal Bovine Serum, 1× non-essential amino acids (Invitrogen) and 500 ug/ml of Hygromycin-B (Invitrogen). Cells were grown and maintained at 37° C. in a humidified environment containing 5% CO2 in air.
The day of the experiment, cells were removed from the incubator and the culture medium removed. Cells were washed with 5 ml of Dulbecco's PBS (DPBS) calcium and magnesium free and detached by the addition of 3 ml Versene (Invitrogen, Italy) followed by a brief incubation at 37° C. for 5 minutes. The flask was tapped to dislodge cells and 10 ml of DPBS containing calcium and magnesium was added to prepare a cell suspension. The cell suspension was then placed into a 15 ml centrifuge tube and centrifuged for 2 min at 1200 rpm. After centrifugation, the supernatant was removed and the cell pellet re-suspended in 4 ml of DPBS containing calcium and magnesium using a 5 ml pipette to break up the pellet. Cell suspension volume was then corrected to give a cell concentration for the assay of approximately 3 million cells per ml.
Experiments were conducted at room temperature using IonWorks Quattro™ planar array electrophysiology technology (Molecular Devices Corp.) with PatchPlate™ PPC. Stimulation protocols and data acquisition were carried out using a microcomputer (Dell Pentium 4). Planar electrode hole resistances(Rp) were determined by applying a 10 mV voltage step across each well. These measurements were performed before cell addition. […] Following this, amphotericin-B solution was added to the intracellular face of the electrode to achieve intracellular access. Cells were held at −70 mV. Leak subtraction was conducted in all experiments by applying 50 ms hyperpolarizing (10 mV) prepulses to evoke leak currents followed by a 20 ms period at the holding potential before test pulses. From the holding potential of −70 mV, a first test pulse to −15 mV was applied for 100 ms and following a further 100 ms at −70 mV, a second pulse to 40 mV was applied for 50 ms. Cells were then maintained for a further 100 ms at −100 mV and then a voltage ramp from −100 mV to 40 mV was applied over 200 ms. In all experiments, the test pulses protocol was performed in the absence (pre-read) and presence (post-read) of the test compound. Pre- and post-reads were separated by the compound addition followed by a 3 minute incubation.
The intracellular solution contained the following (in mM): K-gluconate 100, KCl 54, MgCl2 3.2, HEPES 5, adjusted to pH 7.3 with KOH. Amphotericin-B solution was prepared as 50 mg/ml stock solution in DMSO and diluted to a final working concentration of 0.1 mg/ml in intracellular solution.
The final assay dilution was 200 and the final compound concentrations were in the range 50 μM to 50 nM.
The recordings were analysed and filtered using both seal resistance (>20 MΩ) and peak current amplitude (>500 pA at the voltage step of 40 mV) in the absence of compound to eliminate unsuitable cells from further analysis. Kv3 channel-mediated outward currents were measured determined from the mean amplitude of the current over the final 10 ms of the −15 mV voltage pulse minus the mean baseline current at −70 mV over a 10 ms period just prior to the −15 mV step. This Kv3 channel currents following addition of the test compound were then compared with the currents recorded prior to compound addition. […] The normalised data were analysed using ActivityBase or Excel software.

Kv3 channels = conditions: cited from earlier work
[3] = test system: parvalbumin-positive interneurons in the somatosensory cortex; test: Firing of parvalbumin-positive interneurons in somatosensory cortex slices, in vitro; type: cell-based, mouse; conditions: 0.5 mM, vs control slices (0.1% DMSO)
MNTB neurons = test: High-voltage activated potassium currents in MNTB neurons, in vitro; type: cell-based, mouse; conditions: 1 mM
Procedure: Male CBA/Ca mice (aged 12-16 days) were used in these experiments (in accordance with the UK Animals Scientific Procedures Act, 1986). Brain slices containing the medial nucleus of the trapezoid body (MNTB) were prepared as described previously (Brew and Forsythe, 2005).
Chemicals and reagents were purchased from Sigma, (Poole, UK) unless otherwise noted. Reference Example RE1 was dissolved in DMSO and diluted in ACSF to the required concentration.
Recordings from identified MNTB neurons were conducted as previously described (Brew and Forsythe, 2005). Slices was placed in a superfusion chamber on an inverted microscope stage and continuously perfused with gassed (95% O2-5% CO2) ACSF at a rate of 1 ml min-1 at room temperature. Whole-cell recordings were made from visually identified MNTB neurons using an […] amplifier (Molecular Devices, Union City, Calif., USA). Patch solution comprised (in mM) potassium gluconate (97.5), KCl (32.5), Hepes (40), EGTA (5), MgCl2 (1), Na2phosphocreatin (5), pH 7.2 with KOH. Pipettes had resistances of 3-5 MΩ and series resistances were 6-10 MΩ (compensated by 70%, 10 μs lag). Access resistance was frequently monitored and the recording discarded if increases were more than 2 MΩ. […]

Male CD rats = test: Electroshock seizure model in rats; type: in vivo, rat; conditions: 300 mg/kg p.o., 1 hour before test; positive control
Procedure: Male CD rats (85-130 g) were supplied by Charles River, Italy.
Testing involved determining the threshold for tonic hindlimb extensor seizures using a Hugo Sachs Electronik stimulator which delivers a constant current of 0.3 second duration, 50 Hz, sinewave form, fully adjustable between 1 and 300 mA. Stimuli were delivered via corneal electrodes (Stean T O, Atkins A R, Heidbreder C A, Quinn L P, Trail B K, Upton N. (2005) Br J Pharmacol. 144(5):628-35). Seizure threshold was determined using the ‘up and down’ method of Kimball et al. (1957)(Kimball A W, Burnett W T Jr, Doherty D G. (1957) Radiat Res. 7(1):1-12). The first animal tested in each group was stimulated with a current that might be expected to be close to the threshold for induction of a seizure. If a tonic seizure was not induced, then the next animal in the group received a stimulus 5 mA higher. If a tonic seizure was induced, then the next animal received a stimulus 5 mA lower. This is repeated for all animals within the control (vehicle) group. In the case of groups treated with a test compound steps of 5 to 10 mA were used. At the end of the study, blood samples were taken for analysis of the drug concentrations in this compartment (n=4/group).
All doses were calculated as base. Sodium valproate was suspended in Methocell 1% (w/v) and dosed via the oral (p.o.) route at 5 mL/kg 1 hour before test. Reference Example RE1 was dissolved in DMSO and then suspended in Methocell 1% (w/v) to a final DMSO concentration of 5% (v/v). Reference Example RE1 was then dosed p.o. at 5 mL/kg 2 hours before test.
Induction of seizure is measured as an all-or-nothing effect scored as either present (+) or absent (0) for each animal. […] Drug effects were calculated as the % change in CC50. Significant differences between drug-treated animals and appropriate vehicle treated groups were assessed according to the methods of Litchfield and Wilcoxon (1949).

## CN1CCN(C2=Nc3cc(Cl)ccc3Nc3ccccc32)CC1 [Clozapine, reference compound]
Male CD-1 mice
  Total Distance Travelled (cm): 932 ± 362 cm

## CC[C@H]1NC(=O)N(c2ccc(Oc3cccc4c3C3(CC3)CO4)nc2)C1=O [Example 15, (5R)-5-ethyl-3-[6-(spiro[1-benzofuran-3,1′-cyclopropan]-4-yloxy)-3-pyridinyl]-2,4-imidazolidinedione]
[1]
  ability of neurons to fire (spike probability) on trains of depolarising pulses: reduces the ability of the neurons to fire; also recorded: unable to follow trains at the highest frequency
[2]
  Tauact mean: 50.1 ms

## CC[N+](CC)(CC)CC [TEA, Tetraethylammonium, reference compound]
Kv3 channels
  inhibition of Kv3 channels: inhibit the channels at low millimolar concentrations
[3]
  action potential half-width: significantly increased
  maximal frequency of action potential firing in response to step currents: fired at a lower maximal frequency
MNTB neurons
  amplitude of outward high voltage-activated potassium currents evoked by voltage steps to +40 mV: significantly reduced

## CCCC(CCC)C(=O)[O-].[Na+] [sodium valproate, Sodium valproate, reference compound]
Male CD rats
  increase in seizure threshold (% change in CC50): 258%
